# Results published in the kinase profiling compilation of Christmann-Franck et al. (2016).
# Assays:
# Experiment in all cases: KINOMEscan competition binding
# Settings in all cases: compound 10.0 µM
# ULK2 (human) = ULK2 (human) (UniProt Q8IYT8)
# TTK (human) = TTK (human) (UniProt P33981)
# AURKC (human) = AURKC (human) (UniProt Q9UQB9)
# FGFR4 (human) = FGFR4 (human) (UniProt P22455)
# AURKA (human) = AURKA (human) (UniProt O14965)
# PRKD1 (human) = PRKD1 (human) (UniProt Q15139)
# PTK2 (human) = PTK2 (human) (UniProt Q05397)
# FRK (human) = FRK (human) (UniProt P42685)
# TNK2 (human) = TNK2 (human) (UniProt Q07912)
# ALK (human) = ALK (human) (UniProt Q9UM73)
# PIK3CG (human) = PIK3CG (human) (UniProt P48736)
# PLK1 (human) = PLK1 (human) (UniProt P53350)
# DCLK2 (human) = DCLK2 (human) (UniProt Q8N568)
# CSF1R (human) = CSF1R (human) (UniProt P07333)
# TAOK1 (human) = TAOK1 (human) (UniProt Q7L7X3)
# MKNK2 (human) = MKNK2 (human) (UniProt Q9HBH9)
# CAMK2D (human) = CAMK2D (human) (UniProt Q13557)
# ULK1 (human) = ULK1 (human) (UniProt O75385)
# STK33 (human) = STK33 (human) (UniProt Q9BYT3)
# TAOK3 (human) = TAOK3 (human) (UniProt Q9H2K8)
# CAMKK2 (human) = CAMKK2 (human) (UniProt Q96RR4)
# FER (human) = FER (human) (UniProt P16591)
# RPS6KA2 KD2 (human) = RPS6KA2 KD2 (human) (UniProt Q15349)
# PLK4 (human) = PLK4 (human) (UniProt O00444)
# MYLK (human) = MYLK (human) (UniProt Q15746)
# DCLK1 (human) = DCLK1 (human) (UniProt O15075)
# GAK (human) = GAK (human) (UniProt O14976)
# RPS6KA6 KD2 (human) = RPS6KA6 KD2 (human) (UniProt Q9UK32)
# [1] = tested on: ABL1 (human), P00519 [F317L]
# NUAK1 (human) = NUAK1 (human) (UniProt O60285)
# [2] = tested on: ABL1 (human), P00519 [F317I]
# ROS1 (human) = ROS1 (human) (UniProt P08922)
# TNK1 (human) = TNK1 (human) (UniProt Q13470)
# MAPK7 (human) = MAPK7 (human) (UniProt Q13164)
# RPS6KA1 KD2 (human) = RPS6KA1 KD2 (human) (UniProt Q15418)
# PTK2B (human) = PTK2B (human) (UniProt Q14289)
# PTK6 (human) = PTK6 (human) (UniProt Q13882)
# Sequence of RPS6KA6 KD2 (human) (Q9UK32 whole entry, looked up): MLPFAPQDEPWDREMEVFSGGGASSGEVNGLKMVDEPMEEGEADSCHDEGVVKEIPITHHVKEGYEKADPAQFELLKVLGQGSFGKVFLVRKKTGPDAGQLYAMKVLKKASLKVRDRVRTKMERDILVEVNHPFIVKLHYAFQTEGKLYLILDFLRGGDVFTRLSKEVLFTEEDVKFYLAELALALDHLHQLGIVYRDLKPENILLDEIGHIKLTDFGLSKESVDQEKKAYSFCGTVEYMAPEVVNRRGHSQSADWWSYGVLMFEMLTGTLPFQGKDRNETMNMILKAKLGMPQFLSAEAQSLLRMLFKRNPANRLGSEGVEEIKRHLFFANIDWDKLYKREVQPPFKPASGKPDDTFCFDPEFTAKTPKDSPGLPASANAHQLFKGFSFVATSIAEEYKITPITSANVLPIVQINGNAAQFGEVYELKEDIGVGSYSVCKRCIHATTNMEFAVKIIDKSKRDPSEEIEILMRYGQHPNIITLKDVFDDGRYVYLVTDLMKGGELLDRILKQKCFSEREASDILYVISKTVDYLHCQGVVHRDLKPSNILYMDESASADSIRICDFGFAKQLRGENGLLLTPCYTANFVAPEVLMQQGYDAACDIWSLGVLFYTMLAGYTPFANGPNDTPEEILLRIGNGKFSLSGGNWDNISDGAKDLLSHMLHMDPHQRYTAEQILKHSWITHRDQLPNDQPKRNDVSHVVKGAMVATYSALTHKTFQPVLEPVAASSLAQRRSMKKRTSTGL
# Sequence of AURKA (human) (O14965 whole entry, looked up): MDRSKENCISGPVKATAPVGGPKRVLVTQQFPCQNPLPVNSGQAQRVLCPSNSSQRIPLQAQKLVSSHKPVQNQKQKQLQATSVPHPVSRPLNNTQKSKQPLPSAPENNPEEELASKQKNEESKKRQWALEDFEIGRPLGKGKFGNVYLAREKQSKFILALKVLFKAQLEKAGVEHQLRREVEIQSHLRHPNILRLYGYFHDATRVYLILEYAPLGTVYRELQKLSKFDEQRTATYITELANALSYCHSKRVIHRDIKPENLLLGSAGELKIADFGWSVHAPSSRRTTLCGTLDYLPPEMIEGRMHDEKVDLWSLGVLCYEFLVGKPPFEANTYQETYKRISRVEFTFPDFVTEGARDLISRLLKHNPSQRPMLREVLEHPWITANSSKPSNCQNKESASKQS
# Sequence of STK33 (human) (Q9BYT3 whole entry, looked up): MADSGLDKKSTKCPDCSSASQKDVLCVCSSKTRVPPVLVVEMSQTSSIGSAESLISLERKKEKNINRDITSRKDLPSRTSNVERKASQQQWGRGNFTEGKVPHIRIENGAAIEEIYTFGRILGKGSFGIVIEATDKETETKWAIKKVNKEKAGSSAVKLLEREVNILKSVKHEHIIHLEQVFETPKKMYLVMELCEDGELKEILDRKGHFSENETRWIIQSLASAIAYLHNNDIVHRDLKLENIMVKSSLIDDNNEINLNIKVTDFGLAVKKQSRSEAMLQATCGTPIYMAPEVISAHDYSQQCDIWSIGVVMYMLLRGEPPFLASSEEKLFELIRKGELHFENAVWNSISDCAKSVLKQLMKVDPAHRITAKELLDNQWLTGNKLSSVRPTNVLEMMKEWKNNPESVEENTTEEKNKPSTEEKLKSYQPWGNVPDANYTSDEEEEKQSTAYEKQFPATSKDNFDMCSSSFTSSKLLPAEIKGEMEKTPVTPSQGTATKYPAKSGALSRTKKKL
# Sequence of RPS6KA2 KD2 (human) (Q15349 whole entry, looked up): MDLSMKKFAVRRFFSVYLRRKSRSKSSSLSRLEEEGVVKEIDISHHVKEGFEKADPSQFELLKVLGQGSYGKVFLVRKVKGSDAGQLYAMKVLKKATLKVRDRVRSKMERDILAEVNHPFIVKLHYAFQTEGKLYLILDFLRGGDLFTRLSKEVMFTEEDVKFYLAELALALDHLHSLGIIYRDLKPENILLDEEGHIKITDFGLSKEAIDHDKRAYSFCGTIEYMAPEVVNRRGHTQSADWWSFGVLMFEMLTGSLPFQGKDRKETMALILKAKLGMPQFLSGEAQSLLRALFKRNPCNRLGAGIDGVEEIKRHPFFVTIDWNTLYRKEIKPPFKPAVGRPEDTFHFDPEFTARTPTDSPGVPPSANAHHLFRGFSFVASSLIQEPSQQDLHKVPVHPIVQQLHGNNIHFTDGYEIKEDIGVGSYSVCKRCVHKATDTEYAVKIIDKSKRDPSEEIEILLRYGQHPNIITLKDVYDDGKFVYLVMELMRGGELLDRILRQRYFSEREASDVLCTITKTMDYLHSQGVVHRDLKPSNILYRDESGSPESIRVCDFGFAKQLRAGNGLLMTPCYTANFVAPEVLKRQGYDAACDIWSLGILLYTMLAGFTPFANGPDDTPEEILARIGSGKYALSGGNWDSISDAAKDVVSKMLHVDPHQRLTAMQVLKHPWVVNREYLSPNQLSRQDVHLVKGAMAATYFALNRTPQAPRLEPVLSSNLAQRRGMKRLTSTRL
# Sequence of RPS6KA1 KD2 (human) (Q15418 whole entry, looked up): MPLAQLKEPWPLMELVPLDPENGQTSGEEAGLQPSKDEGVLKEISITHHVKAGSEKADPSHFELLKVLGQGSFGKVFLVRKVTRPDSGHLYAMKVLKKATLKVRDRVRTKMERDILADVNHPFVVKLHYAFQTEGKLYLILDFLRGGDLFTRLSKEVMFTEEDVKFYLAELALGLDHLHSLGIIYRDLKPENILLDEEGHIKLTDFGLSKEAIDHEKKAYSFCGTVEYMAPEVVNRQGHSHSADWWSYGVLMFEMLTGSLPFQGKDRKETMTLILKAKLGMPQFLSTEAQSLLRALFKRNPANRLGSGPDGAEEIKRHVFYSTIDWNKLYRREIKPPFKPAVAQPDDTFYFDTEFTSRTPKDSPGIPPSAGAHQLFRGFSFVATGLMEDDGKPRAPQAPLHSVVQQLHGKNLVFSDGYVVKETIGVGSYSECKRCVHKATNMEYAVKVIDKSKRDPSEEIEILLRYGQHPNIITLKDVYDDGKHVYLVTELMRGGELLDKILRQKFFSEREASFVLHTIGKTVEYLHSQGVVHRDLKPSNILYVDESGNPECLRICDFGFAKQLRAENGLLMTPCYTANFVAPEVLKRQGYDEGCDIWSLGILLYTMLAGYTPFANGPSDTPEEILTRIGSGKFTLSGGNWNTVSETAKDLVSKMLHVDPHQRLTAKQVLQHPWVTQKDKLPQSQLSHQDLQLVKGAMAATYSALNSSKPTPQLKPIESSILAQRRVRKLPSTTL
# Sequence of ULK1 (human) (O75385 whole entry, looked up): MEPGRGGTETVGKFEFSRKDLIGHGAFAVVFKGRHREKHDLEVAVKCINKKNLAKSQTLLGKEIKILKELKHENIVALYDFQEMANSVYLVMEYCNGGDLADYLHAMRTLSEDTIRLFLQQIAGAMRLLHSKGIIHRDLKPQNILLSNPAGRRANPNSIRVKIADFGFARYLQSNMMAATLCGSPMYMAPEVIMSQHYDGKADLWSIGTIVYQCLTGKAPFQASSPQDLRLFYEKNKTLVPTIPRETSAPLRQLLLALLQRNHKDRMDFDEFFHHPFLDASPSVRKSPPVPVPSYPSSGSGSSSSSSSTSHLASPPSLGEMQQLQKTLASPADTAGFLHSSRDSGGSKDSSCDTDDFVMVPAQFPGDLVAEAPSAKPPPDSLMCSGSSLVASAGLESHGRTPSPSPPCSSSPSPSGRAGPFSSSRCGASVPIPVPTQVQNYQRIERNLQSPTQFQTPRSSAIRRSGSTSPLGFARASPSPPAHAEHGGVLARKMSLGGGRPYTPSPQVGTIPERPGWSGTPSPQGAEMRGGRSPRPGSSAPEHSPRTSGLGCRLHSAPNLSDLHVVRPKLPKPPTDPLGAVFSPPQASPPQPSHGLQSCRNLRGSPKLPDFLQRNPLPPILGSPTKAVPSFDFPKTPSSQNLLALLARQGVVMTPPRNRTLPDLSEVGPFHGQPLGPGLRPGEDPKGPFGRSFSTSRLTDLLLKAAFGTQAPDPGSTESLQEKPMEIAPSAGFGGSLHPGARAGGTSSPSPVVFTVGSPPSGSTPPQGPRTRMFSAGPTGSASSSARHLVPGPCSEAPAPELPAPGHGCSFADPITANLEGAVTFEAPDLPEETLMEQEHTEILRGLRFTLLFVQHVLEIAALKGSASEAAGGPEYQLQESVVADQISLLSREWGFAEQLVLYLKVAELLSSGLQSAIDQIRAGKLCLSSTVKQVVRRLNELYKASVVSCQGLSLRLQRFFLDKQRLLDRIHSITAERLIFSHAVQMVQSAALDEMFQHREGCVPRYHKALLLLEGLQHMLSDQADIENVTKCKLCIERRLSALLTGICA
# Sequence of PLK1 (human) (P53350 whole entry, looked up): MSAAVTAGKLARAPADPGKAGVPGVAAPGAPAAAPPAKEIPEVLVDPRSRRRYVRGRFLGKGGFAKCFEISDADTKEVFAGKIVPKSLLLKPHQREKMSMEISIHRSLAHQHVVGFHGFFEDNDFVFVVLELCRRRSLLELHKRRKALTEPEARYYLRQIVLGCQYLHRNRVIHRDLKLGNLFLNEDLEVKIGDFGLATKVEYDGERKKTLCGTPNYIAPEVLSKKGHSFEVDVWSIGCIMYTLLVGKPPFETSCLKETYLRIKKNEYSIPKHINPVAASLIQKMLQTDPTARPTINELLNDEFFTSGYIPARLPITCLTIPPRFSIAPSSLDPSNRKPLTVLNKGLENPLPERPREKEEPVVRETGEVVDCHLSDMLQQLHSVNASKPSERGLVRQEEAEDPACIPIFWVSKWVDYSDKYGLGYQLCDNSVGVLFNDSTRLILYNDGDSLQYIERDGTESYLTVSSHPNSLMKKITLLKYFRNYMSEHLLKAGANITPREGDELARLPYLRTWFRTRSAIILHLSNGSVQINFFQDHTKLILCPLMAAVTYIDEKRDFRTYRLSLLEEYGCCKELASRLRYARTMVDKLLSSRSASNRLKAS
smiles,measurement,setting,value
COc1cc(N2CCC(O)CC2)ccc1Nc1ncc2c(n1)N(C)c1ccccc1C(=O)N2C,"kinase still bound, per cent of control",ULK2 (human),8.4%
same,"kinase still bound, per cent of control",TTK (human),13%
same,"kinase still bound, per cent of control",AURKC (human),15%
same,"kinase still bound, per cent of control",FGFR4 (human),6%
same,"kinase still bound, per cent of control",AURKA (human),26%
same,"kinase still bound, per cent of control",PRKD1 (human),26%
same,"kinase still bound, per cent of control",PTK2 (human),7.9%
same,"kinase still bound, per cent of control",FRK (human),11%
same,"kinase still bound, per cent of control",TNK2 (human),1.6%
same,"kinase still bound, per cent of control",ALK (human),24%
same,"kinase still bound, per cent of control",PIK3CG (human),9.3%
same,"kinase still bound, per cent of control",PLK1 (human),5.5%
same,"kinase still bound, per cent of control",DCLK2 (human),0.4%
same,"kinase still bound, per cent of control",CSF1R (human),3.2%
same,"kinase still bound, per cent of control",TAOK1 (human),6.8%
same,"kinase still bound, per cent of control",MKNK2 (human),0%
same,"kinase still bound, per cent of control",CAMK2D (human),27%
same,"kinase still bound, per cent of control",ULK1 (human),22%
same,"kinase still bound, per cent of control",STK33 (human),19%
same,"kinase still bound, per cent of control",TAOK3 (human),5.4%
same,"kinase still bound, per cent of control",CAMKK2 (human),15%
same,"kinase still bound, per cent of control",FER (human),32%
same,"kinase still bound, per cent of control",RPS6KA2 KD2 (human),27%
same,"kinase still bound, per cent of control",PLK4 (human),5.9%
same,"kinase still bound, per cent of control",MYLK (human),22%
same,"kinase still bound, per cent of control",DCLK1 (human),0.55%
same,"kinase still bound, per cent of control",GAK (human),8.5%
same,"kinase still bound, per cent of control",RPS6KA6 KD2 (human),14%
same,"kinase still bound, per cent of control",[1],23%
same,"kinase still bound, per cent of control",NUAK1 (human),24%
same,"kinase still bound, per cent of control",[2],7.4%
same,"kinase still bound, per cent of control",ROS1 (human),5.8%
same,"kinase still bound, per cent of control",TNK1 (human),0.45%
same,"kinase still bound, per cent of control",MAPK7 (human),0%
same,"kinase still bound, per cent of control",RPS6KA1 KD2 (human),22%
same,"kinase still bound, per cent of control",PTK2B (human),29%
same,"kinase still bound, per cent of control",PTK6 (human),21%
